In patent publication US12030896B2, “PIKfyve inhibitors” (Mayo Foundation for Medical Education and Research, priority 2018, dated 2024):
Values joined by “and” are separate entries in the source; they are usually repeats but may differ in a detail not shown here. Equal entries are not always repeated.

Columns and labels:
[1] = system: Human colorectal carcinoma cell lines (HCT116, HT29); test: Killing of colorectal carcinoma cell lines (Cell-titer glow); type: cell-based; conditions: HCT116, HT29 vs brain tumor cell lines
Protocol: Human colorectal carcinoma cell lines were similarly tested for killing by the compound. (ATP activity is defined by use of the Cell-titer glow luminescence assay). […] All experiments were performed using RPMI media (Life Technologies) as the base formulation for “complete” media. HT29 cells require physical scraping in addition to trypsin to dissociate from tissue culture plastic.

[2] = Pharmacokinetic study of Example 1 in mouse (IV, IP, PO); type: in vivo, Male C57BL/6 Mouse; conditions: for concentration at 0.25 h / concentration at 0.5 h / concentration at 1 h / concentration at 2 h / concentration at 4 h: male, C57BL/6, mouse, plasma, ip
Protocol: Species: Male C57BL/6 Mouse, fasted.
PK/PD testing of the compound was performed in mice, after IP, IV, or oral administration.

[3] = IP 30 mg/kg, individual mice M4-M6, 30 mg/kg
[4] = IV 5 mg/kg, individual mice M1-M3, 5 mg/kg
[5] = PO 30 mg/kg, individual mice M7-M9, 30 mg/kg

SMILES: Cc1ccc(Nc2nc(N/N=C/c3c[nH]c4ccccc34)nc(N3CCOCC3)n2)cc1 [Example 1, (E)-4-(2-((1H-indol-3-yl)methylene)hydrazinyl)-6-morpholino-N-(p-tolyl)-1,3,5-triazin-2-amine]
- sensitivity to compound-induced death [1]: more sensitive
- plasma concentration ([2]; IP 30 mg/kg, 0.250 h, individual mice M4-M6, 30 mg/kg): 299 ng/mL and 314 ng/mL
- plasma concentration ([2]; IP 30 mg/kg, 0.500 h, individual mice M4-M6, 30 mg/kg): 430 ng/mL and 376 ng/mL
- plasma concentration ([2]; IP 30 mg/kg, 1.00 h, individual mice M4-M6, 30 mg/kg): 636 ng/mL and 492 ng/mL
- plasma concentration ([2]; IP 30 mg/kg, 2.00 h, individual mice M4-M6, 30 mg/kg): 441 ng/mL and 523 ng/mL
- plasma concentration ([2]; IP 30 mg/kg, 4.00 h, individual mice M4-M6, 30 mg/kg): 232 ng/mL and 158 ng/mL
- plasma concentration ([2]; IP 30 mg/kg, 6.00 h, individual mice M4-M6, 30 mg/kg): 115 ng/mL and 103 ng/mL
- plasma concentration ([2]; IP 30 mg/kg, 24.0 h, individual mice M4-M6, 30 mg/kg): 34.1 ng/mL and 40.7 ng/mL
- Tlast ([2]; IP 30 mg/kg, individual mice M4-M6): 24.0 h
- AUC0-last [2, 3]: 3110 ng·h/mL and 2925 ng·h/mL
- AUC(0-inf) [2, 3]: 3512 ng·h/mL and 3588 ng·h/mL
- AUCExtra [2, 3]: 18.0% and 11.5% and 18.5%
- AUMCExtra [2, 3]: 54.7% and 41.4% and 56.7%
- Cmax [2, 3]: 636 ng/mL and 523 ng/mL
- MRT0-inf [2, 3]: 9.91 h and 13.1 h
- MRT0-last [2, 3]: 6.56 h and 6.98 h
- T1/2 [2, 3]: 8.19 h and 11.3 h
- Tmax [2, 3]: 2.00 h
- AUCExtra ([2]; IP 30 mg/kg, mean): 16.0%
- AUMCExtra ([2]; IP 30 mg/kg, mean): 50.9%
- Tlast ([2]; IP 30 mg/kg, mean): 24.0 h
- peak concentration ([2]; IP, single 30 mg/kg dose): 534 ng/mL
- plasma concentration ([2]; IV 5 mg/kg, 5 min, individual mice M1-M3, 5 mg/kg): 1500 ng/mL and 2090 ng/mL
- plasma concentration ([2]; IV 5 mg/kg, 0.250 h, individual mice M1-M3, 5 mg/kg): 1270 ng/mL and 1530 ng/mL
- plasma concentration ([2]; IV 5 mg/kg, 0.500 h, individual mice M1-M3, 5 mg/kg): 1060 ng/mL and 1130 ng/mL
- plasma concentration ([2]; IV 5 mg/kg, 1.00 h, individual mice M1-M3, 5 mg/kg): 591 ng/mL and 678 ng/mL
- plasma concentration ([2]; IV 5 mg/kg, 2.00 h, individual mice M1-M3, 5 mg/kg): 169 ng/mL and 204 ng/mL
- plasma concentration ([2]; IV 5 mg/kg, 4.00 h, individual mice M1-M3, 5 mg/kg): 16.7 ng/mL and 16.4 ng/mL
- plasma concentration ([2]; IV 5 mg/kg, 6.00 h, individual mice M1-M3, 5 mg/kg): 4.04 ng/mL and 3.44 ng/mL
- plasma concentration ([2]; IV 5 mg/kg, 24.0 h, individual mice M1-M3): BQL
- Tlast ([2]; IV 5 mg/kg, individual mice M1-M3): 6.00 h
- AUC0-last [2, 4]: 1539 ng·h/mL and 1820 ng·h/mL
- AUC(0-inf) [2, 4]: 1543 ng·h/mL and 1823 ng·h/mL
- AUCExtra [2, 4]: 0.381% and 0.251% and 0.171%
- AUMCExtra [2, 4]: 2.79% and 1.96% and 1.39%
- C0 [2, 4]: 1630 ng/mL and 2442 ng/mL
- Cl [2, 4]: 54.0 mL/min/kg and 45.7 mL/min/kg
- MRT0-inf [2, 4]: 0.890 h and 0.847 h
- MRT0-last [2, 4]: 0.875 h and 0.836 h
- T1/2 [2, 4]: 0.665 h and 0.628 h
- Vdss [2, 4]: 2.89 L/kg and 2.32 L/kg
- AUCExtra ([2]; IV 5 mg/kg, mean): 0.268%
- AUMCExtra ([2]; IV 5 mg/kg, mean): 2.05%
- Tlast ([2]; IV 5 mg/kg, mean): 6.00 h
- plasma concentration ([2]; PO 30 mg/kg, 0.250 h, individual mice M7-M9, 30 mg/kg): 59.6 ng/mL and 65.0 ng/mL
- plasma concentration ([2]; PO 30 mg/kg, 0.500 h, individual mice M7-M9, 30 mg/kg): 84.2 ng/mL and 115 ng/mL
- plasma concentration ([2]; PO 30 mg/kg, 1.00 h, individual mice M7-M9, 30 mg/kg): 145 ng/mL and 55.8 ng/mL and 75.3 ng/mL
- plasma concentration ([2]; PO 30 mg/kg, 2.00 h, individual mice M7-M9, 30 mg/kg): 58.6 ng/mL and 16.2 ng/mL and 16.7 ng/mL
- plasma concentration ([2]; PO 30 mg/kg, 4.00 h, individual mice M7-M9, 30 mg/kg): 12.7 ng/mL and 5.98 ng/mL and 3.78 ng/mL
- plasma concentration ([2]; PO 30 mg/kg, 6.00 h, individual mice M7-M9, 30 mg/kg): 11.3 ng/mL and 7.80 ng/mL
- plasma concentration ([2]; PO 30 mg/kg, 24.0 h, individual mice M7-M9): BQL
- Tlast ([2]; PO 30 mg/kg, individual mice M7-M9): 6.00 h
- AUC0-last [2, 5]: 291 ng·h/mL and 129 ng·h/mL and 145 ng·h/mL
- AUC(0-inf) [2, 5]: 158 ng·h/mL and 162 ng·h/mL
- AUCExtra [2, 5]: 6.68% and 18.1% and 10.7%
- AUMCExtra [2, 5]: 25.1% and 52.3% and 41.3%
- Cmax [2, 5]: 84.2 ng/mL and 115 ng/mL
- MRT0-inf [2, 5]: 2.96 h and 2.14 h
- MRT0-last [2, 5]: 1.72 h and 1.41 h
- T1/2 [2, 5]: 1.76 h and 1.55 h
- AUCExtra ([2]; PO 30 mg/kg, mean): 11.9%
- AUMCExtra ([2]; PO 30 mg/kg, mean): 39.6%
- Tlast ([2]; PO 30 mg/kg, mean): 6.00 h
- concentration at 0.25 h ([2]; 30 mg/kg, IP 30 mg/kg, 0.250 h, individual mice M4-M6): 242 ng/mL
- concentration at 0.25 h ([2]; 30 mg/kg, IP 30 mg/kg, 0.250 h, mean): 285 ng/mL
- concentration at 0.5 h ([2]; 30 mg/kg, IP 30 mg/kg, 0.500 h, individual mice M4-M6): 381 ng/mL
- concentration at 0.5 h ([2]; 30 mg/kg, IP 30 mg/kg, 0.500 h, mean): 396 ng/mL
- concentration at 1 h ([2]; 30 mg/kg, IP 30 mg/kg, 1.00 h, individual mice M4-M6): 443 ng/mL
- concentration at 1 h ([2]; 30 mg/kg, IP 30 mg/kg, 1.00 h, mean): 524 ng/mL
- concentration at 2 h ([2]; 30 mg/kg, IP 30 mg/kg, 2.00 h, individual mice M4-M6): 367 ng/mL
- concentration at 2 h ([2]; 30 mg/kg, IP 30 mg/kg, 2.00 h, mean): 444 ng/mL
- concentration at 4 h ([2]; 30 mg/kg, IP 30 mg/kg, 4.00 h, individual mice M4-M6): 136 ng/mL
- concentration at 4 h ([2]; 30 mg/kg, IP 30 mg/kg, 4.00 h, mean): 175 ng/mL
